These results are taken from patent US20210186984A1, “CERTAIN (2S)-N-[(1S)-1-CYANO-2-PHENYLETHYL]-1,4-OXAZEPANE-2-CARBOXAMIDES FOR TREATING ANCA ASSOCIATED VASCULITIDES” (Insmed Incorporated, priority 2018, published 2021).

For experiment [1], the system named is surface PR3. Kind of experiment: Fluorescence microscopy of surface PR3 on neutrophils differentiated in presence of INS1007. It is filed as cell-based, human. The note with it: differentiation in the presence of 10 μM; neutrophils derived from bone marrow and umbilical cord stem cells (both cell types). On the procedure: To evaluate the pharmacological effects of INS1007 on surface PR3 expression, total PR3 expression, and NSP activity, stem cells were differentiated to neutrophils in the presence of INS1007 at increasing concentrations. Primary bone marrow (BM) or umbilical cord blood (UC) derived CD34^+ neutrophil progenitor cells (AllCells; Alameda, Calif.) were cultured for 7 days in STEMSPAN™ SFEM media (Stemcell Technologies; Tukwila, WA) supplemented with recombinant human Stem Cell Factor (Peprotech; Rocky Hill, NJ) and recombinant human IL-3 (Peprotech). The cells were differentiated in culture for another 7 days in STEMSPAN™ SFEM media (Stemcell Technologies) with recombinant human Granulocyte Colony Stimulating Factor (Peprotech), plus increasing concentrations of INS1007 (0-10 μM). […]
In a separate experiment, neutrophils were harvested, stained for 30 min. with either a mouse anti-PR3 monoclonal antibody (Abcam; Cambridge, Mass.) or a mouse monoclonal IgG isotype control (Abcam), followed by a Cy5-conjugated goat anti-mouse IgG secondary antibody (Abcam), fixed in 4% formaldehyde, and mounted to glass slides with PROLONGTM Diamond Antifade Mountant with DAPI (Thermo Fisher; Waltham, Mass.). Samples were imaged with an Axio fluorescence microscope (Zeiss; Oberkochen, Germany) using constant settings while imaging samples from different treatment conditions.

Experiment [2] has as its system total proteinase 3 (PR3). The experiment can be described thus: Flow cytometry of total (surface and intracellular) PR3 expression in differentiated neutrophils. It is filed as cell-based, human. How it is done: To evaluate the pharmacological effects of INS1007 on surface PR3 expression, total PR3 expression, and NSP activity, stem cells were differentiated to neutrophils in the presence of INS1007 at increasing concentrations. Primary bone marrow (BM) or umbilical cord blood (UC) derived CD34^+ neutrophil progenitor cells (AllCells; Alameda, Calif.) were cultured for 7 days in STEMSPAN™ SFEM media (Stemcell Technologies; Tukwila, WA) supplemented with recombinant human Stem Cell Factor (Peprotech; Rocky Hill, NJ) and recombinant human IL-3 (Peprotech). The cells were differentiated in culture for another 7 days in STEMSPAN™ SFEM media (Stemcell Technologies) with recombinant human Granulocyte Colony Stimulating Factor (Peprotech), plus increasing concentrations of INS1007 (0-10 μM). At the end of the differentiation/treatment period, cells were harvested for analysis.
Differentiated neutrophils were harvested for flow cytometry to quantify PR3 expression on the surface of neutrophils (FIGS. 1 and 2) and neutrophil total PR3 expression (FIG. 3).
For orientation: A flow cytometer gives signals particle by particle.

Each structure is given as a SMILES string.

For the molecule `Cn1c(=O)oc2ccc(-c3ccc(C[C@@H](C#N)NC(=O)[C@@H]4CNCCCO4)cc3)cc21` [INS1007, (2S)-N-{(1S)-1-cyano-2-[4-(3-methyl-2-oxo-2,3-dihydro-1,3-benzoxazol-5-yl)phenyl]ethyl}-1,4-oxazepane-2-carboxamide], in experiment [1], the “surface PR3 (fluorescence microscopy)” value is on record as “markedly reduced”. The “total PR3 levels” value in experiment [2] (bone marrow stem cell-derived neutrophils, not completely concentration-dependent) is “significantly reduced”; in experiment [2] (umbilical cord blood stem cell-derived neutrophils), “did not reach statistically significant reduction”. The “percentage of cells with positive total PR3 expression” value in experiment [2] (neutrophils derived from either umbilical cord blood or bone marrow stem cells) is “did not reduce”.
